Test [1] addresses T1, hTRPV1 (Homo sapiens, UniProt Q8NER1).
T1 construct: expressed in transfected cells; host or cells: HEK293
Put plainly: Human TRPV1 [3H]RTX binding assay (membranes of transfected HEK293 cells). Conditions: inhibition of [3H]RTX binding. On the procedure:
Compounds of the present invention were tested for their ability to inhibit the binding of [^3H] RTX to hTRPV1 receptors in a [^3H] RTX binding assay as previously described (See, PCT International Application WO02/33411A1 and Elfrida G. R. et al., J. Pharmacol. Exp. Ther., 2002, 300(1): 9-17.)
HEK293 cells were transfected with hTRPV1 vanilloid receptors and washed with Hank's balanced Salt Solution, dissociated with cell dissociation buffer (Sigma), and then centrifuged at 1000×g for 5 min. Cell pellets were homogenized in cold 20 mM HEPES buffer (pH=7.4), containing 5.8 mM NaCl, 320 mM sucrose, 2 mM MgCl2, 0.75 CaCl2 and 5 mM KCl and centrifuged at 1000×g for 15 min. The resultant supernatant was then centrifuged at 40,000×g for 15 min. The pelleted membranes were stored in a freezer at −80° C.
Approximately 120 μg protein/mL from membranes were incubated with indicated concentrations of [^3H]RTX in 0.5 mL of the HEPES buffer (pH 7.4) containing 0.25 mg/mL fatty acid-free bovine serum albumin at 37° C. for 60 min. […] Bound radioactivity was quantified by scintillation counting. Non-specific binding was measured in the presence of 200 nM unlabeled RTX.
Data were calculated according to the equation: % inhibition=100%×[(total binding−binding)/(total binding−non specific binding)]. Ki values were calculated using a Prism program.

The target of test [2] is T1, hTRPV1. Put plainly: Human TRPV1 (hTRPV1) functional assay, FLIPR intracellular Ca2+, capsaicin challenge. In kind it is cell-based. Conditions: HEK293 cells expressing hTRPV1, capsaicin 0.030 μM challenge; for IC50: derived from a variety of test concentrations, read-out: IC50 value (symbol c); for inhibition at 0.5 µM: test concentration of 0.5 μm, read-out: percent inhibition (symbol a); for inhibition at 0.2 µM: test concentration of 0.2 μm, read-out: percent inhibition (symbol b). Summed up:
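HEK293 cells expressing the channel, loaded with Calcium 3 dye, were exposed to compounds for 5 min before capsaicin 0.030 μM (~80% maximal). FLIPR Ca2+ read; IC50/EC50 from quadruplicate concentration-response, or percent inhibition at 0.5 μm or 0.2 μm.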

In the next test the test system is male Sprague-Dawley rats. Kind of test: CFA-induced inflammatory pain, reversal of thermal hyperalgesia (radiant heat paw stimulator). In kind it is in vivo. The settings on record: Rattus norvegicus, po, 10 mg/kg orally, 24 h after CFA, maximal during the 300 min test, read-out: % Reversal (maximal percent reversal of hypersensitivity). The method, then: Compounds of the present invention were tested in animal models of inflammation and inflammatory pain. To assess the ability of test compounds to reverse thermal hyperalgesia, baseline response latencies on a radiant heat (RH) paw stimulator were obtained before an intraplantar injection of 100 μL (1 μg/μL) CFA (1:1 CFA:saline) in male Sprague-Dawley rats. Only withdrawal responses that were quick hind paw movements (with or without licking of the hind paw) were recorded. Paw movements associated with locomotion or a shifting of weight were not considered a withdrawal response. The stimulus intensity that produced 10-15 sec baseline withdrawal latencies was used and a maximum cutoff of 20 sec was imposed. Hypersensitivity was evaluated 24 h after CFA.
Following the post-inflammogen latency assessment, rats were orally dosed (2.5 mL/kg) with test compound (10 mg/kg) or vehicle (20% hydroxypropyl beta cyclodextran). To determine the time of peak effect, latencies were redetermined 30, 60, 100, 180 and 300 min after compound administration.
Data are presented as the maximal percent reversal of hypersensitivity obtained during the 300 min test, which was calculated for each animal according to the formula: % reversal=100%×(treatment response−post-inflammogen response)/(pre-inflammogen response−post-inflammogen response)

Structures are written as SMILES.

T1 sequence (Q8NER1 whole entry): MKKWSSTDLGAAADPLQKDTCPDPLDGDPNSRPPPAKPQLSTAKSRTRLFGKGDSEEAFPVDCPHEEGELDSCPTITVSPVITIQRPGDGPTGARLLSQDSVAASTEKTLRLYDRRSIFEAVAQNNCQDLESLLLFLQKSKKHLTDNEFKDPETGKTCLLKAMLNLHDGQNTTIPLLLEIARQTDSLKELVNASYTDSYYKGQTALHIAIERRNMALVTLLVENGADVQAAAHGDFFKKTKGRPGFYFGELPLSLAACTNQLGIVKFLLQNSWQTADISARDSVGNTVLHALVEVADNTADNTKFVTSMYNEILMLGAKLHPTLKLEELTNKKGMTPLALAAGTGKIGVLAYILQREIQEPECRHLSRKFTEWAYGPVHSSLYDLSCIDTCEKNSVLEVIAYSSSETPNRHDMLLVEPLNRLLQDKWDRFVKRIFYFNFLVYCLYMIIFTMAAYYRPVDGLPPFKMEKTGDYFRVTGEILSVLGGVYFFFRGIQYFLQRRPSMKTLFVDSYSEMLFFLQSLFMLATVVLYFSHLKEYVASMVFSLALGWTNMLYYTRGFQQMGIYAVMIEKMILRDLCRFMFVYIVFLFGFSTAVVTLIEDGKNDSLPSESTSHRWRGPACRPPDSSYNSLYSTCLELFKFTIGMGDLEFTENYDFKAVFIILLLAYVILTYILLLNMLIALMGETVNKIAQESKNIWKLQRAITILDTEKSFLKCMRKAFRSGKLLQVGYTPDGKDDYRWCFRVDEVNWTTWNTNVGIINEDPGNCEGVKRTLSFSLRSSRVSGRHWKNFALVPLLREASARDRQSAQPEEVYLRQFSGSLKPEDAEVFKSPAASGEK

On to `NS(=O)(=O)c1ccccc1-c1ccc2[nH]c(COc3ccc(C(F)(F)F)cc3)nc2c1` [Cpd 1, 2-[2-(4-trifluoromethyl-phenoxymethyl)-1H-benzoimidazol-5-yl]-benzenesulfonamide], for which the Ki on hTRPV1 [1] came to 2.7 nM. On hTRPV1 [2], the IC50 was determined as 3 nM and the inhibition at 0.5 µM is 100%. In addition, the inhibition in vivo at 10 mg/kg in the test with male Sprague-Dawley rats was 85%.
In the case of `NS(=O)(=O)c1ccccc1-c1ccc2[nH]c(COc3ccc(S(=O)(=O)C(F)(F)F)cc3)nc2c1` [Cpd 2, 2-[2-(4-trifluoromethanesulfonyl-phenoxymethyl)-1H-benzoimidazol-5-yl]-benzenesulfonamide], on hTRPV1 [2], the IC50 stood at 10 nM and the inhibition at 0.5 µM was found to be 99%. Also, the inhibition in vivo at 10 mg/kg in the test with male Sprague-Dawley rats was determined as 80%.
Taken in the same sequence, the figures for `NS(=O)(=O)c1ccccc1-c1ccc2[nH]c(COc3ccc(OC(F)(F)F)cc3)nc2c1` [Cpd 16, 2-[2-(4-trifluoromethoxy-phenoxymethyl)-1H-benzoimidazol-5-yl]-benzenesulfonamide] were 10 nM, 99% and 70%.
Taken in the same sequence, the figures for `CNS(=O)(=O)c1ccccc1-c1ccc2[nH]c(COc3ccc(C(F)(F)F)cc3)nc2c1` [Cpd 17, N-methyl-2-[2-(4-trifluoromethyl-phenoxymethyl)-1H-benzoimidazol-5-yl]-benzenesulfonamide] were 1 nM, 100% and 100%.
Taken in the same sequence, the figures for `CC(C)(O)c1ccccc1-c1ccc2[nH]c(COc3ccc(C(F)(F)F)cc3)nc2c1` [Cpd 21, 2-{2-[2-(4-trifluoromethyl-phenoxymethyl)-1H-benzoimidazol-5-yl]-phenyl}-propan-2-ol] were 14 nM, 99% and 100%.
`CS(=O)(=O)c1ccccc1-c1ccc2[nH]c(COc3ccc(S(=O)(=O)C(F)(F)F)cc3)nc2c1` [Cpd 86, 5-(2-methanesulfonyl-phenyl)-2-(4-trifluoromethanesulfonyl-phenoxymethyl)-1H-benzoimidazole]: on hTRPV1 [2], the IC50 stood at 4.9 nM and the inhibition at 0.2 µM came out at 97%. Also, the inhibition in vivo at 10 mg/kg with male Sprague-Dawley rats turned out to be 100%.
In the case of `CS(=O)(=O)c1ccccc1-c1ccc2[nH]c(COc3ccc(C(F)(F)F)cc3)nc2c1` [Cpd 98, 5-(2-methanesulfonyl-phenyl)-2-(4-trifluoromethyl-phenoxymethyl)-1H-benzoimidazole], on hTRPV1 [2], the IC50 turned out to be 2.1 nM and the inhibition at 0.5 µM was 94%. Moreover, the inhibition in vivo at 10 mg/kg with male Sprague-Dawley rats came to 30%.
With `CS(=O)(=O)Nc1ccccc1-c1ccc2[nH]c(COc3ccc(C(F)(F)F)cc3)nc2c1` [Cpd 101, N-{2-[2-(4-trifluoromethyl-phenoxymethyl)-1H-benzoimidazol-5-yl]-phenyl}-methanesulfonamide], at hTRPV1 [2], the IC50 is 10 nM and the inhibition at 0.5 µM was determined as 94%. In addition, the inhibition in vivo at 10 mg/kg in the test on male Sprague-Dawley rats was 22%.
In the case of `CN(C)S(=O)(=O)c1ccccc1-c1ccc2[nH]c(COc3ccc(C4CC4)cc3)nc2c1` [Cpd 166, 2-[2-(4-cyclopropyl-phenoxymethyl)-1H-benzoimidazol-5-yl]-N,N-dimethyl-benzenesulfonamide], at hTRPV1 [2], the IC50 is 7 nM and the inhibition at 0.2 µM was 98%.
With `CS(=O)(=O)c1ccccc1-c1ccc2[nH]c(COc3ccc(C4CC4)cc3)nc2c1` [Cpd 167, 2-(4-cyclopropyl-phenoxymethyl)-5-(2-methanesulfonyl-phenyl)-1H-benzoimidazole], at hTRPV1 [2], the IC50 was determined as 7 nM and the inhibition at 0.2 µM turned out to be 98%.
The corresponding values for `CS(=O)(=O)Nc1ccccc1-c1ccc2[nH]c(COc3ccc(C4CC4)cc3)nc2c1` [Cpd 168, N-{2-[2-(4-cyclopropyl-phenoxymethyl)-1H-benzoimidazol-5-yl]-phenyl}-methanesulfonamide] are 24 nM and 97%.

Values taken from patent publication US7612211B2, “Benzimidazole TRPV1 inhibitors” (Janssen Pharmaceutica N.V., priority 2006, dated 2009).
